TGI and GI50 data for 13 compounds are collected here from PubChem BioAssay (NCI).

Where “and” joins values, the source holds several entries; their conditions need not be identical. Identical values can stand only once.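 Five concentrations, 48 hours, 96-well plates. The concentration for 50% growth inhibition is given as GI50. TGI: concentration producing complete growth inhibition.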

Some test systems named below: DMS 114 small cell lung; DMS 273 small cell lung; HOP-92 NSCLC; KM20L2 colon; LXFL 529 NSCLC; MOLT-4 leukemia; OVCAR-4 ovarian; RXF 393 renal; SN12C renal; SNB-78 CNS.
What all share (test): inhibition of tumour cell growth, NCI panel, 48 h

Take `CCOC(=O)CCC(NC(=O)c1ccc(N=Cc2nc3cc(C(F)(F)F)ccc3nc2-c2ccccc2)cc1)C(=O)OCC` (stereo unspecified): the TGI is over 100 µM in the test with DMS 114 small cell lung; over 100 µM in the test on DMS 273 small cell lung; 18.3 µM and 45.8 µM in the test with HOP-92 NSCLC; over 100 µM in the test on KM20L2 colon; 50 µM and > 100 µM in the test on LXFL 529 NSCLC; over 100 µM in the test on MOLT-4 leukemia. Moreover, the TGI with OVCAR-4 ovarian was 50 µM and > 100 µM; with RXF 393 renal, 17.2 µM and 20.2 µM; in the test on SN12C renal it was over 100 µM; in the test on SNB-78 CNS it was 32 µM and 98.8 µM. For the same compound, the GI50 was 12.5 µM with HOP-92 NSCLC; over 100 µM in the test on KM20L2 colon; over 100 µM in the test on LXFL 529 NSCLC; over 100 µM with MOLT-4 leukemia; over 100 µM in the test with OVCAR-4 ovarian; 3.1 µM in the test on RXF 393 renal. Besides, the GI50 in the test on SN12C renal was over 100 µM; with SNB-78 CNS, 18.1 µM.

Take `Cc1cc(Br)cc(C)c1NC(=O)C(=O)CC(=O)c1sc(-n2nc(-c3ccccc3)cc2-c2ccccc2)nc1C`: the TGI with DMS 114 small cell lung, in the test with DMS 273 small cell lung, with HOP-92 NSCLC, with KM20L2 colon, with LXFL 529 NSCLC and with MOLT-4 leukemia was over 100 µM in each case. Besides, the TGI in the test on OVCAR-4 ovarian, in the test with RXF 393 renal, in the test with SN12C renal and in the test on SNB-78 CNS was over 100 µM throughout.

As for `N[C@H]1C2C3CC4C5CC(C42)C1(c1ccccc1)C53` (stereo partly specified), the TGI with DMS 114 small cell lung, with DMS 273 small cell lung, in the test on HOP-92 NSCLC, in the test with KM20L2 colon, in the test with LXFL 529 NSCLC and in the test with MOLT-4 leukemia was over 100 µM throughout. The TGI in the test on OVCAR-4 ovarian, in the test on RXF 393 renal, in the test on SN12C renal and in the test with SNB-78 CNS was over 100 µM each time.

Regarding `O=S(=O)(O)CS(=O)(=O)OCCCl`, the TGI in the test with DMS 114 small cell lung, in the test with DMS 273 small cell lung, with HOP-92 NSCLC, with KM20L2 colon, in the test with LXFL 529 NSCLC and in the test on MOLT-4 leukemia was over 100 µM each time. In addition, the TGI in the test with OVCAR-4 ovarian, with RXF 393 renal, in the test on SN12C renal and in the test on SNB-78 CNS was over 100 µM in each case.

With `CCOC(=O)C1C=C2O[C@@H]3OC4(CCCCC4)O[C@@H]3C2[C@H]2C(=O)C=CC(=O)[C@@]12C(=O)OC` (stereo partly specified), the TGI stood at 9.68 µM in the test with DMS 114 small cell lung; 22.9 µM with DMS 273 small cell lung; 26.2 µM in the test with HOP-92 NSCLC; 30.6 µM with KM20L2 colon; 22.9 µM in the test on LXFL 529 NSCLC; 8.71 µM in the test on MOLT-4 leukemia. Also, the TGI in the test with OVCAR-4 ovarian was determined as 23.3 µM; with RXF 393 renal, 3.59 µM; in the test on SN12C renal, 31.5 µM; in the test with SNB-78 CNS, 19.3 µM.

Regarding `COC1C=C(Nc2cccc(Cl)c2)C(=O)C1` (stereo unspecified), the TGI in the test with DMS 114 small cell lung, in the test on DMS 273 small cell lung, with HOP-92 NSCLC, in the test with KM20L2 colon, in the test with LXFL 529 NSCLC and with MOLT-4 leukemia was over 100 µM throughout. The TGI with OVCAR-4 ovarian was over 100 µM; with RXF 393 renal it was 92.9 µM; in the test with SN12C renal, over 100 µM; with SNB-78 CNS, over 100 µM.

With `Cc1cc(C)nc(NS(=O)(=O)c2ccc(Nc3c4ccccc4nc4c(C(=O)Nc5ccc(S(N)(=O)=O)cc5)cccc34)cc2)n1`, the TGI in the test with DMS 114 small cell lung, in the test on DMS 273 small cell lung, with HOP-92 NSCLC, in the test with KM20L2 colon, with LXFL 529 NSCLC and with MOLT-4 leukemia was over 100 µM throughout. Also, the TGI with OVCAR-4 ovarian, in the test with RXF 393 renal, with SN12C renal and in the test with SNB-78 CNS was over 100 µM throughout.

As to `NC(N)=NS(=O)(=O)c1ccc(NC(=O)c2cccc3c(Nc4ccc(S(=O)(=O)N=C(N)N)cc4)c4ccc(Cl)cc4nc23)cc1`, the TGI was over 100 µM with DMS 114 small cell lung; over 100 µM with DMS 273 small cell lung; 93 µM with HOP-92 NSCLC; over 100 µM in the test with KM20L2 colon; over 100 µM in the test on LXFL 529 NSCLC; over 100 µM with MOLT-4 leukemia. Also, the TGI in the test on OVCAR-4 ovarian, in the test with RXF 393 renal, in the test with SN12C renal and in the test with SNB-78 CNS was over 100 µM in each case.

With `Cc1c(NC(=O)C(=O)N=NC(=O)c2ccncc2)c(O)c2ccccc2c1O`, the TGI in the test on DMS 114 small cell lung is 15.3 µM; with DMS 273 small cell lung, 23.2 µM; with HOP-92 NSCLC it was 33.5 µM; in the test with KM20L2 colon, 70.3 µM; in the test with LXFL 529 NSCLC it was 28.2 µM; in the test on MOLT-4 leukemia it was over 77.8 µM. In addition, the TGI with OVCAR-4 ovarian amounted to 27.5 µM; in the test on RXF 393 renal, 32.6 µM; in the test on SN12C renal, 24.3 µM; in the test with SNB-78 CNS, 39.7 µM.

For the compound `CCCCCCC(=O)C/C(CCC(=O)N(Cc1ccccc1)Cc1ccccc1)=N\Nc1ccc([N+](=O)[O-])cc1[N+](=O)[O-]`, the TGI in the test on DMS 114 small cell lung was 40.6 µM; with DMS 273 small cell lung, over 100 µM; with HOP-92 NSCLC, over 100 µM; in the test on KM20L2 colon, over 100 µM; in the test with LXFL 529 NSCLC, over 100 µM; with OVCAR-4 ovarian, over 100 µM. The TGI in the test with RXF 393 renal, in the test with SN12C renal and in the test on SNB-78 CNS was over 100 µM throughout.

In the case of `CNC(=O)OCc1nc(SC(C)C)n(C)c1COC(=O)NC`, the TGI in the test on DMS 114 small cell lung is over 100 µM; in the test on DMS 273 small cell lung, over 100 µM; in the test on HOP-92 NSCLC, over 100 µM; in the test with KM20L2 colon, over 100 µM; in the test on LXFL 529 NSCLC, over 100 µM; in the test on MOLT-4 leukemia it was over 86.6 µM. The TGI with OVCAR-4 ovarian, in the test on RXF 393 renal, in the test on SN12C renal and with SNB-78 CNS was over 100 µM in each case.

`CC(Cl)(/C=C/Cl)C(Cl)/C=C/C(Cl)(CCl)CBr` (stereo unspecified): the TGI amounted to 5.32 µM in the test with DMS 114 small cell lung; 17.1 µM in the test with DMS 273 small cell lung; 4.01 µM in the test with HOP-92 NSCLC; 23.9 µM with KM20L2 colon; 2.5 µM in the test with LXFL 529 NSCLC; 3.36 µM in the test with MOLT-4 leukemia. The TGI turned out to be 9.36 µM in the test with OVCAR-4 ovarian, 2.92 µM in the test with RXF 393 renal, 12.5 µM in the test on SN12C renal and 4.95 µM with SNB-78 CNS.

For `COc1ccc(-c2oc3cc(O)c(OC)c(O)c3c(=O)c2OC2OC(CO)C(O)C(O)C2O)cc1` (stereo unspecified), the TGI with DMS 114 small cell lung, in the test with DMS 273 small cell lung, with HOP-92 NSCLC, in the test on KM20L2 colon, in the test with LXFL 529 NSCLC and in the test on MOLT-4 leukemia was over 100 µM in each case. The TGI in the test with OVCAR-4 ovarian, with SN12C renal and in the test on SNB-78 CNS was over 100 µM throughout.
